Laboratory results published in ChEMBL document CHEMBL5523723, “G Protein-Coupled Estrogen Receptor-Mediated Anti-Inflammatory and Mucosal Healing Activity of a Trimethylpyridinol Analogue in Inflammatory Bowel Disease” (J Med Chem, 2024).

What was measured:
[1] = target: T1, CYP1A2 (Homo sapiens, UniProt P05177); assay: Inhibition of CYP1A2 in human liver microsomes assessed as remaining activity at 10 uM using phenacetin as substrate preincubated for 5 mins followed by NADPH generating system addition for 15 mins by LC-MS/MS method relative to control; assay type: ADME, Microsome; settings: probe phenacetin, time 20 min, read-out: Activity
T1 sequence (P05177 whole entry): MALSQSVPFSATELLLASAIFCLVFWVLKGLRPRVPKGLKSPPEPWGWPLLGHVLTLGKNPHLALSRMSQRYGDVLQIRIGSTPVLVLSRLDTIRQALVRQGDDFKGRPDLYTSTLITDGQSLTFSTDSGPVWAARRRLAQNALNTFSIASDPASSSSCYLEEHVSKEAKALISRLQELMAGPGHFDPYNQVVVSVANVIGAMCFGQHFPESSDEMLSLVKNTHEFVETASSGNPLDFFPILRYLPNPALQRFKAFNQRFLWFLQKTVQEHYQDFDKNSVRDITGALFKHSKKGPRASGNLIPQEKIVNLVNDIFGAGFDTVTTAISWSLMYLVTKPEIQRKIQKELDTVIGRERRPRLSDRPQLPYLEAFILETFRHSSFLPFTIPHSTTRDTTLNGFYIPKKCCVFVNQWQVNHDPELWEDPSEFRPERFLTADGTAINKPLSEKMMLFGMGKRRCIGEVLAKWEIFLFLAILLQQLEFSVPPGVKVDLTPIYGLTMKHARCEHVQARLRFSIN

[2] = Acute toxicity in ICR mouse assessed as change in food intake at 30 to 300 mg/kg, po measured every other day for 14 days; assay type: organism-based; settings: in vivo, 336 h, dose 30-300 mg/kg, time 14 day
[3] = AUC(0 to t) in Sprague-Dawley rat at 1 mg/kg, po by LC-MS analysis; assay type: ADME, organism-based; settings: in vivo
[4] = Acute toxicity in ICR mouse assessed as change in histology of kidney at 30 to 300 mg/kg, po measured every other day for 14 days by H and E staining based assay; assay type: organism-based; settings: in vivo, 336 h, dose 30-300 mg/kg, time 14 day
[5] = Acute toxicity in ICR mouse assessed as change in water intake at 30 to 300 mg/kg, po measured every other day for 14 days; assay type: organism-based; settings: in vivo, 336 h, dose 30-300 mg/kg, time 14 day
[6] = target: CYP3A4 (Homo sapiens, UniProt P08684); assay: Inhibition of CYP3A4 in human liver microsomes assessed as remaining activity at 10 uM using midazolam as substrate preincubated for 5 mins followed by NADPH generating system addition for 15 mins by LC-MS/MS method relative to control; assay type: ADME, Microsome; settings: probe midazolam, time 20 min, read-out: Activity
CYP3A4, sequence (P08684 whole entry): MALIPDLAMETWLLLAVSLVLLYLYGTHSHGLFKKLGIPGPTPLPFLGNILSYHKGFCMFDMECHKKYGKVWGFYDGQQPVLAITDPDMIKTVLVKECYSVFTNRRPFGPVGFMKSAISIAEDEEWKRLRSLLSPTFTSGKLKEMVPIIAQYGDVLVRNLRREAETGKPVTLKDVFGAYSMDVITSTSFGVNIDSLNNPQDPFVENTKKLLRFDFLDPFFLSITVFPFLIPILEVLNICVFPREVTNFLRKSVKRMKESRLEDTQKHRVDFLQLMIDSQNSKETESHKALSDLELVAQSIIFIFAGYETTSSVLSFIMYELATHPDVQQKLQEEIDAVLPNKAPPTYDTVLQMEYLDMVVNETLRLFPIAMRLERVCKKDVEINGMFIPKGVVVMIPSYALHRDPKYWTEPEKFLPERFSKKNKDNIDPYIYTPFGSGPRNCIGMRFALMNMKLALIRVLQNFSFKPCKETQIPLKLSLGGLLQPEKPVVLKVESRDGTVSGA

[7] = target: G-protein coupled estrogen receptor 1 (Homo sapiens, UniProt Q99527); assay: Inhibition of GPER1 (unknown origin)
G-protein coupled estrogen receptor 1, sequence (Q99527 whole entry): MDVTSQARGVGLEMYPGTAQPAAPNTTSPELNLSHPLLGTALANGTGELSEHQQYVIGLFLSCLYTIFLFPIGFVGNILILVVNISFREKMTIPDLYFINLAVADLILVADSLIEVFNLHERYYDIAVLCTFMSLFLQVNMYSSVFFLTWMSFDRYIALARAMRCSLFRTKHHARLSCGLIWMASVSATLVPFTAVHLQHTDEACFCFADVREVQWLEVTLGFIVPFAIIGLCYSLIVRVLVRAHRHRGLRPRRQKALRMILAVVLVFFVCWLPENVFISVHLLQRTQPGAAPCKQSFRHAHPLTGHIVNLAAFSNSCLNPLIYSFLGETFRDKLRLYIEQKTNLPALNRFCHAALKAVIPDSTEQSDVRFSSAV

[8] = target: Prostaglandin G/H synthase 1 (Homo sapiens, UniProt P23219); assay: Inhibition of COX-1 (unknown origin)
Prostaglandin G/H synthase 1, sequence (P23219 whole entry): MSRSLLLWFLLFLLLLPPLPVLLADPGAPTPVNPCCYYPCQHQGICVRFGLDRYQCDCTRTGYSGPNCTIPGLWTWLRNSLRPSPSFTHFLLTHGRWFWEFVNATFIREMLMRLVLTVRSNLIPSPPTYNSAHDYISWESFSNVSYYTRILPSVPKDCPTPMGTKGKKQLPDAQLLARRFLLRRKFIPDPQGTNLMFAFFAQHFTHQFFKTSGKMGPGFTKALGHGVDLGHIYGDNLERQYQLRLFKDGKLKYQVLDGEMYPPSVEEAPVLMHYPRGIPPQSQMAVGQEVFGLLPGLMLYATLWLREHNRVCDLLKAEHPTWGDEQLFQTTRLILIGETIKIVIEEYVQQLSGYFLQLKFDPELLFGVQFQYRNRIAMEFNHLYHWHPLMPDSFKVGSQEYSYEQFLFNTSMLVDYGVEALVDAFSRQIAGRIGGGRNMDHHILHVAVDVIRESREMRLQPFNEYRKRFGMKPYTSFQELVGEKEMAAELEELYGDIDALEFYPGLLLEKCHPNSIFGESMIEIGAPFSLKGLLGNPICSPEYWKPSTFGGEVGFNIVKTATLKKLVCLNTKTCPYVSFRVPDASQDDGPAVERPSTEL

[9] = Acute toxicity in ICR mouse assessed as change in histology of heart at 30 to 300 mg/kg, po measured every other day for 14 days by H and E staining based assay; assay type: organism-based; settings: in vivo, 336 h, dose 30-300 mg/kg, time 14 day
[10] = Acute toxicity in ICR mouse assessed as abnormal behavior at 30 to 300 mg/kg, po measured every other day for 14 days; assay type: organism-based; settings: in vivo, 336 h, dose 30-300 mg/kg, time 14 day
[11] = Cmax in Sprague-Dawley rat at 1 mg/kg, po by LC-MS analysis; assay type: ADME, organism-based; settings: in vivo
[12] = Acute toxicity in ICR mouse assessed as change in histology of liver at 30 to 300 mg/kg, po measured every other day for 14 days by H and E staining based assay; assay type: organism-based; settings: in vivo, 336 h, dose 30-300 mg/kg, time 14 day
[13] = Half life in Sprague-Dawley rat at 1 mg/kg, po by LC-MS analysis; assay type: ADME, organism-based; settings: in vivo
[14] = Mean residence time in Sprague-Dawley rat at 5 mg/kg, po by LC-MS analysis; assay type: ADME, organism-based; settings: in vivo
[15] = Cmax in Sprague-Dawley rat at 5 mg/kg, po by LC-MS analysis; assay type: ADME, organism-based; settings: in vivo
[16] = Acute toxicity in ICR mouse assessed as digestive disorder at 30 to 300 mg/kg, po measured every other day for 14 days; assay type: organism-based; settings: in vivo, 336 h, dose 30-300 mg/kg, time 14 day
[17] = target: hERG (Homo sapiens, UniProt Q12809); assay: Inhibition of hERG expressed in HEK cells assessed as remaining activity at 10 uM by automated patch clamp method relative to control; assay type: toxicity, cell-based; settings: HEK cells expressing hERG, read-out: Activity
hERG, sequence (Q12809 whole entry): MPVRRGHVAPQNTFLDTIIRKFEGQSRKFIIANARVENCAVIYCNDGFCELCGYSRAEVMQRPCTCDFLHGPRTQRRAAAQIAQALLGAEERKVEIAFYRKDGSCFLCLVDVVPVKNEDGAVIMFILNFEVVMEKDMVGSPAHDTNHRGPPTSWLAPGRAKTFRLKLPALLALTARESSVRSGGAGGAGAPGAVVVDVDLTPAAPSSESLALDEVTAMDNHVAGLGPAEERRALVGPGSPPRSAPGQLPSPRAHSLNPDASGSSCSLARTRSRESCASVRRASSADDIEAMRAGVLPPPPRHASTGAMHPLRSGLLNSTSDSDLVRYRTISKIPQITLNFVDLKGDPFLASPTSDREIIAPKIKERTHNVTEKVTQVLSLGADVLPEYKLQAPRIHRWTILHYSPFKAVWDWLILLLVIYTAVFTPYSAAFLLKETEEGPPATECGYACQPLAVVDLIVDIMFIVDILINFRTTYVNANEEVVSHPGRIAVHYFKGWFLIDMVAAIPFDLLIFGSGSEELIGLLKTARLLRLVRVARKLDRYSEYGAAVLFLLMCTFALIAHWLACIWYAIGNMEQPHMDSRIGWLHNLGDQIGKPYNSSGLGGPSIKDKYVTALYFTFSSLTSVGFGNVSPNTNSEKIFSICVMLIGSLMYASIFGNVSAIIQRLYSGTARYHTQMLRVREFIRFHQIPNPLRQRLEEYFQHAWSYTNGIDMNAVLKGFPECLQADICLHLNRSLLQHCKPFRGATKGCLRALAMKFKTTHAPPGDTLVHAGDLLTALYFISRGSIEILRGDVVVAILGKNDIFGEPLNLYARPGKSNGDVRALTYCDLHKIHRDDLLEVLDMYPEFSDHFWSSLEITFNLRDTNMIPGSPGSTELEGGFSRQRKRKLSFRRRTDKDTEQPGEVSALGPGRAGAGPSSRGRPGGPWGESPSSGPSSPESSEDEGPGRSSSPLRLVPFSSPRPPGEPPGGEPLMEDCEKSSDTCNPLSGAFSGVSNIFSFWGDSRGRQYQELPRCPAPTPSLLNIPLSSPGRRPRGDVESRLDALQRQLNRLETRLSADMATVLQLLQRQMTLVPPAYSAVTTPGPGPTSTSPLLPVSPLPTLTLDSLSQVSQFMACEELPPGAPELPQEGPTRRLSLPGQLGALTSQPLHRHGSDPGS

[18] = Oral bioavailability in Sprague-Dawley rat at 5 mg/kg by LC-MS analysis; assay type: ADME, organism-based; settings: in vivo
[19] = Cmax in Sprague-Dawley rat at 1 mg/kg, iv by LC-MS analysis; assay type: ADME, organism-based; settings: in vivo
[20] = tested on: HT-29; assay: Induction of apoptosis in human HT-29 cells assessed as viable cells at 10 uM incubated for 24 hrs by Annexin V FITC/PI staining based flow cytometry analysis ( Rvb = 99 +/- 0.1%); assay type: functional; settings: read-out: Activity
[21] = Acute toxicity in ICR mouse assessed as weight loss at 30 to 300 mg/kg, po measured every other day for 14 days; assay type: organism-based; settings: in vivo, 336 h, dose 30-300 mg/kg, time 14 day
[22] = tested on: U-937; assay: Induction of apoptosis in human U-937 cells assessed as viable cells at 5 uM incubated for 24 hrs by Annexin V FITC/PI staining based flow cytometry analysis ( Rvb = 95.2 +/- 0.4%); assay type: functional; settings: read-out: Activity
[23] = Oral bioavailability in Sprague-Dawley rat at 1 mg/kg by LC-MS analysis; assay type: ADME, organism-based; settings: in vivo
[24] = tested on: U-937; assay: Induction of apoptosis in human U-937 cells assessed as viable cells at 10 uM incubated for 24 hrs by Annexin V FITC/PI staining based flow cytometry analysis ( Rvb = 95.2 +/- 0.4%); assay type: functional; settings: read-out: Activity
[25] = Volume of distribution at steady state in Sprague-Dawley rat at 1 mg/kg, iv by LC-MS analysis; assay type: ADME, organism-based; settings: in vivo, read-out: Vdss
[26] = tested on: U-937; assay: Induction of apoptosis in human U-937 cells assessed as viable cells at 1 uM incubated for 24 hrs by Annexin V FITC/PI staining based flow cytometry analysis ( Rvb = 95.2 +/- 0.4%); assay type: functional; settings: read-out: Activity
[27] = Half life in Sprague-Dawley rat at 5 mg/kg, po by LC-MS analysis; assay type: ADME, organism-based; settings: in vivo
[28] = AUC(0 to t) in Sprague-Dawley rat at 1 mg/kg, iv by LC-MS analysis; assay type: ADME, organism-based; settings: in vivo
[29] = tested on: HT-29; assay: Induction of apoptosis in human HT-29 cells assessed as viable cells at 1 uM incubated for 24 hrs by Annexin V FITC/PI staining based flow cytometry analysis ( Rvb = 99 +/- 0.1%); assay type: functional; settings: read-out: Activity
[30] = target: CYP2C19 (Homo sapiens, UniProt P33261); assay: Inhibition of CYP2C19 in human liver microsomes assessed as remaining activity at 10 uM using 5-mephenytoin as substrate preincubated for 5 mins followed by NADPH generating system addition for 15 mins by LC-MS/MS method relative to control; assay type: ADME, Microsome; settings: probe 5-mephenytoin, time 20 min, read-out: Activity
CYP2C19, sequence (P33261 whole entry): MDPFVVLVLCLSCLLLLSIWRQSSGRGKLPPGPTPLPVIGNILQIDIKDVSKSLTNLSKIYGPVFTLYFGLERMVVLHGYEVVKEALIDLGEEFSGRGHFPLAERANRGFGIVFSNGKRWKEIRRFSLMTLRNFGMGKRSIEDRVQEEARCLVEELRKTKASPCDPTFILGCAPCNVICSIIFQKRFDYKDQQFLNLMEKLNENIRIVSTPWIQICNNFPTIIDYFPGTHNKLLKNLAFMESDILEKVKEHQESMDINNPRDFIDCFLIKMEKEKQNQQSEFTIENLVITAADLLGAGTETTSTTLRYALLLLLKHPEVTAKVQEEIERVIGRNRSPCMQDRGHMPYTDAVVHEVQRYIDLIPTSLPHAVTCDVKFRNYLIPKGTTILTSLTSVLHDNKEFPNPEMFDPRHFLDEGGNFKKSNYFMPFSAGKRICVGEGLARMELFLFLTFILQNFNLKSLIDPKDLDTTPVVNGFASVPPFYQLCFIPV

[31] = Mean residence time in Sprague-Dawley rat at 1 mg/kg, po by LC-MS analysis; assay type: ADME, organism-based; settings: in vivo
[32] = Acute toxicity in ICR mouse assessed as change in kidney weight at 30 to 300 mg/kg, po measured every other day for 14 days […]; assay type: organism-based; settings: in vivo, 336 h, dose 30-300 mg/kg, time 14 day

Cc1nc(NC(=O)c2sc3cc(F)ccc3c2Cl)c(C)c(C)c1O
activity at 0.25 h, 10 µM [1]: 89.2%
Activity [2]: Non-Toxic
AUCt [3]: 246.3 ng·h/mL
Activity [4]: Non-Toxic
Activity [5]: Non-Toxic
activity at 0.25 h, 10 µM [6]: 89.9%
EC50 [7]: 480 nM
IC50 [8]: 800 nM
Activity [9]: Non-Toxic
Activity [10]: Non-Toxic
Cmax [11]: 51.9 ng/mL
Activity [12]: Non-Toxic
half-life [13]: 3.8 h
MRT [14]: 5 h
Cmax [15]: 760 ng/mL
Activity [16]: Non-Toxic
activity at 10 µM [17]: 91.7%
F [18]: 36.7%
Cmax [19]: 1880 ng/mL
viability at 10 µM [20]: 98.6%
Activity [21]: Non-Toxic
viability at 5 µM [22]: 95.2%
F [23]: 24.5%
viability at 10 µM [24]: 95.2%
Vd [25]: 1.3 L/kg
viability at 1 µM [26]: 95.4%
half-life [27]: 3.3 h
AUCt [28]: 10006.6 ng·h/mL
viability at 1 µM [29]: 98.8%
activity at 0.25 h, 10 µM [30]: 98.3%
MRT [31]: 5.7 h
Activity [32]: Non-Toxic
